Where two headings read alike, the source gives them in different places. Blank lines part the entries; values can stand above or below the compound they belong to.
Experiments:
EGFR-TK = EGFR-TK (Homo sapiens, UniProt P00533); experiment: biochemical; details: 3 μM ATP
Procedure: All the following incubations were performed at room temperature and with constant shaking. […] The final volume for each well was 150 μl.
After removing the unbound m108, the plate was washed and PBS containing 5% milk (1% fat) was added for the blocking (25 minutes).
One aliquot of A431 cell lysate was thawed and added to the plate.
After 25 minutes, and without washing the plate, ATP/MnCl2 solution was added in each well. The final concentration was 3 μM ATP/5 mM MnCl2. In this step the temperature was kept at 26° C. and the plate was under constant shaking. The incubation with ATP/MnCl2 was for 5 minutes.
Then, to stop the phosphorylation reaction, EDTA was added (pH 8, final concentration in each well 20 mM) and after 1 minute all the plate was washed.
Afterward, polyclonal anti-phosphotyrosine serum (Sugen, Inc.) was added (dilution of antibody in TBST containing 5% milk). The incubation was for 45 minutes.

[1] = biological target: EGFR autophosphorylation in intact A431 cells (Homo sapiens, UniProt P00533); experiment: EGFR autophosphorylation inhibition rate measurements in intact A431 cells; format: cell-based; details: 30 nM inhibitor
Procedure: A431 cells (10^6) were seeded in 6-well plates and grown to 60–80% confluence in DMEM (high glucose) containing 10% fetal calf serum (FCS) and antibiotics at 37° C.
After the incubation, the medium was replaced with an inhibitor/FCS-free medium, the cells were kept at 37° C. for either 1 or 8 hours, stimulated thereafter with EGF and lysated as described hereinabove. The protein determination assay was then performed once with n=1 for each time point of the 1 hour post-incubation set of cells left, and with n=2 (for each time point) for the 8 hours post-incubation set of cells.
The strips were then washed (3×15 minutes) with fading solution (20% MeOH, 7% acetic acid) and dried.
For visualization of molecular weight bands, the membrane was immersed in Ponceau reagent (0.05% Ponceau, 5% acetic acid) for a few minutes, and then washed twice with TTN (10 mM Tris pH 7.4, 0.2% TWEEN 20, 170 mM NaCl) and once with water. The membrane was blocked overnight in TTN containing 5% milk (1% fat) (blocking TTN) and incubated for 90 minutes with PY20 antiphosphotyrosine antibody (Santa Cruz Biotechnology Inc., Santa Cruz, USA) diluted 1:2,000 in blocking TTN.

[2] = biological target: EGFR-TK autophosphorylation in intact A431 cells (Homo sapiens, UniProt P00533); experiment: cell-based
Procedure: Autophosphorylation Inhibition Experiments in Intact A431 Cells:
A431 cells (10^6) were seeded in 6-well plates and grown to 60–80% confluence in DMEM (high glucose) containing 10% fetal calf serum (FCS) and antibiotics at 37° C. The cells were then exposed to serum-free medium, at 37° C., for 18 hours.
Irreversibility assay: Variable concentrations of the inhibitor, ranging from 0.05 nM to 50 nM, were added to A431 cells for 2 hours incubation. The inhibitor was diluted in vehicle/DMSO and the final concentration of DMSO was 0.05% in each well). The medium was replaced thereafter with an inhibitor/FCS-free medium and the cells were left for either 2 or 8 hours, at 37° C. During the 8 hours period, the medium was changed three more times. After the post-incubation period, the cells were stimulated with EGF (20 ng/ml) for 5 minutes and then washed with PBS. Whole-cell lysates were obtained by scraping the cells into the well with 0.4 ml of Leammli buffer (10% glycerol, 3% sodium dodecyl sulfate, 5% b-mercaptoethanol, 50 mM Tris pH 6.8) that contained 0.001% bromophenol blue, and boiling for 5 minutes.
Western blots: Identical protein amounts from each lysate sample were loaded onto polyacrylamide gel (6% or 10%), separated by electrophoresis (Hoefer Pharmacia Diotech Inc., San Francisco, USA) and transferred to nitrocellulose membrane (power supply: EPS 500/400, Amersham Pharmacia Biotech; nitrocellulose extra blotting membranes: Sartorius A G, Goettingen, Germany). A standard high molecular weight solution was loaded as a reference. For visualization of molecular weight bands, the membrane was immersed in Ponceau reagent (0.05% Ponceau, 5% acetic acid) for a few minutes, and then washed twice with TTN (10 mM Tris pH 7.4, 0.2% TWEEN 20, 170 mM NaCl) and once with water. The membrane was blocked overnight in TTN containing 5% milk (1% fat) (blocking TTN) and incubated for 90 minutes with PY20 antiphosphotyrosine antibody (Santa Cruz Biotechnology Inc., Santa Cruz, USA) diluted 1:2,000 in blocking TTN. The membrane was then washed with TTN (3×5 minutes), incubated for 90 minutes with a horseradish peroxidase-conjugated secondary antibody (Goat anti-mouse IgG H+L, Jackson ImResearch Laboratories, Inc, diluted 1:10,000 in blocking TTN), and finally washed again with TTN (3×5 minutes). The membrane was incubated in a luminol-based solution (1 minute, 0.1 M Tris pH 8.5, 250 μM luminol, 400 μM p-cumaric acid, 0.033% H2O2) and visualized using chemiluminescent detection.
Quantification of the EGFR-P (protein) bands density obtained was performed using Adobe Photoshop 5.0ME and NIH image 1.16/ppc programs.

A431 tumor [3] = experiment: Positron Emission Tomography studies in tumor bearing nude rats; format: in vivo, rat; details: for bladder excretion (PET coronal views): FIG. 12
Procedure: (§1) WAG rnu/rnu male rats (300–400 grams) were injected s.c. in the left or right hind limb, or in the neck, with A431 cells (1×10^7 in 200 μl sterile PBS). Tumor growth was monitored every 2–3 days by calipers. One to two weeks after inoculation, the rats were ready to be used in the following in-vivo biodistribution, metabolic and PET studies. Tumor mass ranging between 2 and 3 grams were used in these experiments.
Positron Emission Tomography studies: Preliminary dynamic PET scans were performed on a Positron Corporation HZL/R scanner (intrinsic spatial resolution: in-plane 5.8 mm, axial 6.3 mm). Rats were anaesthetized with pentothal (85 mg/Kg) and placed supine on a flat polystyrene foam support with feet taped to the support, so as to minimize movements. […] The PET data were normalized for variations in detector sensitivity, and corrected for wobble, randoms, scatter and deadtime. Attenuation correction was applied using the measured transmission scan data. PET images of the Posicam system (Positron Corporation) were reconstructed by filtered back-projection using a Butterworth filter (cut-off 0.2 cycles/mm, order 10). […] These experiments were conducted with the same rats, two days after the first set of experiments.

A431 tumor [4] = experiment: Biodistribution in tumor (A431) bearing rats; format: in vivo, rat; details: for tumor/blood ratios: data not shown; for course of tumor uptake with time / tumor uptake: tumor (A431) bearing rats
Procedure: as §1, with “experiments. Biodistribution: […] Animals were sacrificed at specific time points (between 0 and 1 hour) by means of CO2 asphyxiation. Blood and certain organs and tissues including tumors were collected or excised, counted in a gamma-counter and weighed. % ID/organ, % ID/gram of tissue and tissue/blood uptake ratios were calculated.” for “experiments.”

[5] = Biological stability (metabolism) in blood, liver and tumor of rats; format: in vivo, rat
Procedure: as §1, with “experiments. Biological Stability: […] In general, control rats were injected with the radiolabeled compounds and sacrificed at several time points. […] Ether was then added and the samples were counted in a gamma-counter. Blood, homogenized liver and tumor samples were extracted and the extracted fractions were measured for activity in a gamma-counter, spotted onto TLC, and the radioactivity was detected with phosphor imaging plates.” for “experiments.”

A431 cells = experiment: Specific binding measurements in intact A431 cells; parameters: species or system human
Procedure: Specific Binding Measurements in Intact A431 Cells: […] After incubation, cells were harvested with a cell harvester (Brandel […], model […], Brandel, Gaithersburg, Md., USA) and were counted in a gamma-counter (1480 WizardTM 3''). The specific binding of the radiolabeled inhibitor was calculated by subtracting the radioactivity level of cells pre-incubated with the non-labeled inhibitor from the radioactivity level of cells pre-incubated with the vehicle only.

Chain of EGFR-TK autophosphorylation in intact A431 cells (P00533 25-1210): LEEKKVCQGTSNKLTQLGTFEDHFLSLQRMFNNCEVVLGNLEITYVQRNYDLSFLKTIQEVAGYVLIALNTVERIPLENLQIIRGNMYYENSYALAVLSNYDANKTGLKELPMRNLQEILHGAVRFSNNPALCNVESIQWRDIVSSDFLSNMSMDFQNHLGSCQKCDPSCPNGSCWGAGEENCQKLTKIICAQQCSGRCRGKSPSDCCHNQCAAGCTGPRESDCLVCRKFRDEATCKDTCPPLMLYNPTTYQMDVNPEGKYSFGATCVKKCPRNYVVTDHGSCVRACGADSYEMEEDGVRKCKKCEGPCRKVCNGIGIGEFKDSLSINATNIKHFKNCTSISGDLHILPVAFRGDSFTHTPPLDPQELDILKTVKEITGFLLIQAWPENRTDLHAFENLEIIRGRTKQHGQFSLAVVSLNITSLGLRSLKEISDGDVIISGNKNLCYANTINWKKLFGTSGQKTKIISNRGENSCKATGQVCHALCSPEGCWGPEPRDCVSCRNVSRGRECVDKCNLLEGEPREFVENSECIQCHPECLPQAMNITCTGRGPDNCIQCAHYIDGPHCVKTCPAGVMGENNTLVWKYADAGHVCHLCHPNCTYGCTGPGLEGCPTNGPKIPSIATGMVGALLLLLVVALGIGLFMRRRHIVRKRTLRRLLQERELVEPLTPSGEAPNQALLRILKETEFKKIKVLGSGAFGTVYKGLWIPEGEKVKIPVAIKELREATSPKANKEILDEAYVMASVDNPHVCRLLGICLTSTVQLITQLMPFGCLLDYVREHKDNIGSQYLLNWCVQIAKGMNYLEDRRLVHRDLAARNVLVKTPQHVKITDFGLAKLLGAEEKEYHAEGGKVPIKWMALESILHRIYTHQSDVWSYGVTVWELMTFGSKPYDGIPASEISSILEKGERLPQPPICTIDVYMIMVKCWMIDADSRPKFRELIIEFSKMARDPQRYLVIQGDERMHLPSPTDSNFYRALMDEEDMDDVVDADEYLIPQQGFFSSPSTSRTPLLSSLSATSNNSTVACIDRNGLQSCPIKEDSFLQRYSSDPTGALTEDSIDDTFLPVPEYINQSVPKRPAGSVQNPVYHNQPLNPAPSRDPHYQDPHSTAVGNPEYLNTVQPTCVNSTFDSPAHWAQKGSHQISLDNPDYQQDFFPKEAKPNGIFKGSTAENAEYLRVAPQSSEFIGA
Chain of EGFR-TK (P00533 25-1210): as above
Chain of EGFR autophosphorylation in intact A431 cells (P00533 25-1210): as above

SMILES: C=CC(=O)Nc1ccc2ncnc(Nc3cc(Cl)c(Cl)cc3F)c2c1 [Compound 3, N-{4-[(3,4-dichloro-6-fluorophenyl)amino]quinazoline-6-yl}acrylamide]
IC50 (EGFR-TK; IC50app of an exemplary dose-response autophosphorylation inhibition curve, single exemplary curve (FIG. 1 / FIG. 5), r2 0.995): 0.051 nM
IC50 (EGFR-TK; apparent IC50 average (IC50app), EGFR-TK autophosphorylation, average of 4 independent dose-response curves (n=4), spread ±0.016): 0.042 nM
inhibition of EGFR autophosphorylation ([1]; 9 minutes incubation time, 1 hour post-incubation (FIG. 4), compared with the 80% inhibition of FIG. 3): same effect
inhibition at 0.03 µM ([1]; A-431, 10 minutes incubation time, 8 hours post-incubation (FIG. 3)): 80%
inhibition at 0.0005 µM ([2]; A-431, read-out: inhibition of EGFR autophosphorylation, 0.5 nM inhibitor, 2 h incubation, 2 hours in inhibitor/FCS-free media): ~35%
inhibition at 0.005 µM ([2]; A-431, read-out: inhibition of EGFR autophosphorylation, 5 nM inhibitor, 2 h incubation, 2 hours in inhibitor/FCS-free media): 40%
inhibition at 0.05 µM ([2]; A-431, read-out: inhibition of EGFR autophosphorylation, 50 nM inhibitor, 2 h incubation, 2 hours in inhibitor/FCS-free media): ~100%
inhibition at 0.05 µM ([2]; A-431, read-out: inhibition of EGFR autophosphorylation, 50 nM inhibitor, 2 h incubation, 8 hours post-incubation): ~97%

SMILES: OC[C@H]1O[C@@H](O)[C@H]([18F])[C@@H](O)[C@@H]1O [FDG, reference compound]
bladder excretion (PET coronal views) (A431 tumor [3]): excreted in the bladder in great quantities

SMILES: C=CC(=O)Nc1ccc2ncnc(Nc3cc(Cl)c(Cl)cc3F)c2c1 [carbon-11 labeled Compound 3, carbon-11 labeled N-{4-[(3,4-dichloro-6-fluorophenyl)amino]quinazoline-6-yl}acrylamide]
tumor/blood ratios (A431 tumor [4]; 15 minutes post administration): 0.09 % ID/gram
tumor/blood ratios (A431 tumor [4]; 30 minutes post administration): 0.05 % ID/gram
course of tumor uptake with time (A431 tumor [4]): decreased with time
tracer remaining intact in blood ([5]; 15 minutes post injection): 20%
metabolites in liver and blood (TLC) ([5]; 30 minutes post injection, tumor bearing rats): detected
tracer remaining intact in blood ([5]; 45 minutes post injection): no tracer was remained

tumor uptake (A431 tumor [4]; 15 minutes post-administration): 0.25 % ID/gram
tumor uptake (A431 tumor [4]; 30 minutes post-administration): 0.24 % ID/gram
course of tumor uptake with time (A431 tumor [4]): remained constant
course of intact tracer in blood with time ([5]; 15 to 45 minutes post injection): no substantial reduction with time
tracer remaining intact in blood ([5]; 15 minutes post injection): 60%
metabolites (TLC) ([5]; 60 minutes post injection, tumor bearing rats): no metabolites
bladder excretion (PET coronal views) (A431 tumor [3]): slower and minimal bladder excretion
specific binding of radiolabeled inhibitor in tumor (A431 tumor [3]; PET, alone versus blocked with non-labeled compound): 50%
decrease of liver activity uptake (A431 tumor [3]; during one hour scanning time): 25%
course of activity uptake in the tumor (A431 tumor [3]; during the first one hour scan): remained constant
SMILES: CN(C)CC=CC(=O)Nc1ccc2ncnc(Nc3cc(Cl)c(Cl)cc3F)c2c1 [carbon-11 labeled Compound 4, carbon-11 labeled N-{4-[(3,4-dichloro-6-fluorophenyl)amino]quinazoline-6-yl}-4-(dimethylamino)-2-butenamide]
increase of specific binding as compared to carbon-11 labeled Compound 3 (A431 cells; A431 cells): 10%
specific binding to A431 cells (A431 cells; carbon-11 labeled tracer, non-specific binding from cells pre-incubated with non-labeled inhibitor): 78%
PET visualization of the tumor (A431 tumor [3]; 250 μCi via jugular vein, dynamic scan): visualized throughout a 1-hour scan
tumor uptake of tracer after pre-injection of non-labeled Compound 4 (A431 tumor [3]; non-labeled Compound 4 given 10 minutes before tracer, same rats 2 days later): blocked
total activity uptake in tumor when administered alone as compared with uptake after pre-injecting non-labeled compound (A431 tumor [3]; time activity curves of the tumor region (FIG. 10)): doubled

— patent publication US7172749B2, “Radiolabeled irreversible inhibitors of epidermal growth factor receptor tyrosine kinase and their use in radioimaging and radiotherapy” (priority 2001, dated 2007)
